# According to US20110143197A1, “ELECTRODE ACTIVE MATERIAL FOR POWER STORAGE DEVICE AND POWER STORAGE DEVICE, AND ELECTRONIC EQUIPMENT AND TRANSPORTATION EQUIPMENT” (priority 2008, published 2011):
# Assays:
# [1] = Coin battery charge-discharge test (metal lithium negative electrode), Test Example 3
# Description: A coin battery as shown in FIG. 5 was fabricated as one example of the power storage device of the present invention. FIG. 5 is a vertical cross-sectional view schematically showing a configuration of a coin battery 1 that is one example of the power storage device of the present invention.
# A positive electrode includes a positive electrode current collector 12 made of an aluminum foil and a positive electrode active material layer 13 formed on the positive electrode current collector 12 and containing the phenanthrenequinone-containing compound (1a). The positive electrode was produced in the same manner as in the electrode production method in Test Example 2. This positive electrode was disposed such that the positive electrode current collector 12 was brought into contact with the inner surface of a case 11, and a separator 14 made of a porous polyethylene sheet was placed on the positive electrode.
# Then, a non-aqueous electrolyte was injected into the case 11. As the non-aqueous electrolyte, an electrolyte prepared by dissolving lithium hexafluorophosphate in a concentration of 1.25 mol/L in a solvent mixture containing ethylene carbonate and ethylmethyl carbonate (weight ratio 1:3) was used. […]
# The charge-discharge capacity was calculated based on the initial discharge capacity of each of the coin batteries. […]
# [2] = Solubility in an electrolyte (ultraviolet-visible absorption spectrum and visual inspection), Test Example 1; format: physicochemical; details: 5.0 mmol/l in 1.0 mol/L lithium fluoroborate in propylene carbonate
# Protocol: The solubility of the phenanthrenequinone-containing compounds and the phenanthrenequinone-containing polymers obtained in Examples 1 to 10 in an electrolyte was evaluated in the following manner.
# A phenanthrenequinone-containing compound or a phenanthrenequinone-containing polymer as obtained in Examples 1 to 10 was mixed with 20 cc of an electrolyte so as to attain a concentration of 5.0 mmol/l, thereby giving a test liquid. This test liquid was subjected to ultraviolet-visible absorption spectrum measurement to examine the solubility of each compound in the electrolyte. The ultraviolet-visible absorption spectrum measurement was performed under the following measurement conditions: a measurement range of 190 to 900 nm and a reference solution of a liquid electrolyte. A UV-2550 (trade name) manufactured by SHIMADZU CORPORATION was used as the measurement apparatus. A liquid electrolyte prepared by dissolving lithium fluoroborate in a concentration of 1.0 mol/L in propylene carbonate was used as the electrolyte.
# As a comparative example, a solubility test was performed in the same manner as described above using 9,10-phenanthrenequinone.
# [3] = Cyclic voltammetry of evaluation battery (electrode properties), Test Example 2; format: physicochemical
# Protocol: The electrode properties of the phenanthrenequinone-containing compound (1a) obtained in Example 1 were examined in the following manner. First, in an argon box equipped with a gas purifier, 20 mg of the phenanthrenequinone-containing compound (1a) serving as an electrode active material and 20 mg of acetylene black serving as a conductive auxiliary agent were uniformly mixed under an argon gas atmosphere. To the resultant mixture was added 1 ml of N-methyl-2-pyrrolidone serving as a solvent, and 5 mg of polyvinylidene fluoride serving as a binder was further added thereto, followed by uniform mixing, to prepare a black slurry. The binder was used in order to bond the electrode active material and the conductive auxiliary agent together.
# The slurry thus obtained was applied to the surface of a 20 μm-thick aluminum foil (current collector), and vacuum-dried for 2 hours at room temperature. After drying, a disc having a diameter of 13.5 mm was punched out of the resultant structure to produce an electrode in which an active material layer containing a mixture of the electrode active material, the conductive auxiliary agent, and the binder was formed.
# The electrode thus obtained was used as a working electrode, and metal lithium was used for a counter electrode and a reference electrode. These electrodes were immersed in an electrolyte to fabricate an evaluation battery, and the potential sweeping was performed in a potential range from 2.0 to 4.0 V relative to lithium. The sweeping rate was 0.1 mV/sec. As the electrolyte, a liquid electrolyte prepared by dissolving lithium fluoroborate in a concentration of 1.0 mol/L in a solvent mixture containing propylene carbonate and ethylene carbonate (volume ratio 1:1) was used. FIG. 4 is a cyclic voltammogram of the evaluation battery using the electrode active material of the present invention [phenanthrenequinone-containing compound (1a)].
# [4] = relative to lithium, sweep 2.0 to 4.0 V, 0.1 mV/sec
"reversibility of redox reaction ([3]; cyclic voltammogram, FIG. 4)",dissolution from the electrode ([3]; during potential sweeping in liquid electrolyte),"current peak indicating the oxidation reaction [3, 4]","current peak indicating the second-step reduction reaction [3, 4]","current peak indicating the first-step reduction reaction ([3]; relative to lithium, sweep 2.0 to 4.0 V, 0.1 mV/sec, 1.0 mol/L lithium fluoroborate in propylene carbonate/ethylene carbonate 1:1)",Compound,appearance of electrolyte when battery disassembled after charging and discharging [1],"observation by visual inspection of electrolyte (coloration, dissolution) [2]",absorption peak in ultraviolet-visible absorption spectrum of test liquid (solubility in electrolyte) ([2]; measurement range 190 to 900 nm)
–,–,–,–,–,"O=C1C(=O)c2ccccc2-c2ccccc21 [9,10-phenanthrenequinone]",green coloration of the electrolyte,"colored in yellow, as a result of the compound being entirely dissolved in the electrolyte",a large absorption peak was observed near 250 to 350 nm
underwent a reversible redox reaction,no dissolution,around 3.5 V,around 2.6 V,around 3.1 V,"O=C1C(=O)c2cc(-c3ccc(-c4ccc5c(c4)C(=O)C(=O)c4ccccc4-5)cc3)ccc2-c2ccccc21 [Compound 1a, 1,4-(9,10-phenanthraquinone)-benzene]",–,–,–
